Experimental findings from patent publication US20150023887A1, “Antiperspirant Spray Devices and Compositions” (The Procter & Gamble Company, priority 2013, published 2015) are described below.

The text on this series: Solubility may be determined by measuring the amount of light transmittance (a light transmittance value) through a simple mixture of the non-volatile silicone fluid and liquid activation enhancer at the same weight/weight concentrations as in a final antiperspirant composition.
Solubility of a liquid activation enhancer in a non-volatile silicone may be determined by measuring the amount of light transmittance (light transmittance value) through a simple mixture of the non-volatile silicone fluid and liquid activation enhancer at the same weight/weight concentrations as in a final antiperspirant composition.
The Spectronic Genesys 10 Vis utilizes a tungsten-halogen light source and has a spectral bandwidth of 5 nm, a wavelength range of 325 to 1100 nm, accuracy of ±1 nm and a repeatability of ±0.5 nm. Readouts include absorbance, transmittance and concentration. The spectrophotometer is set to 640 nm wavelength and the percent transmittance mode/readout. Polystyrene spectrometer cuvettes having a 1 cm optical light path and transmittance between ˜340 nm and ˜900 nm are used. One suitable example of a spectrometer cuvette is available from VWR International LLC under Catalog #97000-584 having a 2.5 to 4.5 ml capacity. The spectrophotometer is calibrated according to the manufacturer's instructions using a reference cuvette and composition comprised of just the non-volatile silicone fluid of interest. For example, if the test composition comprises 50 centistoke dimethicone and 15% w/w of isopropyl myristate, then the spectrometer is calibrated using a cuvette containing just 50 centistoke dimethicone. Sample cuvettes are filled sufficiently with a test composition of a non-volatile silicone fluid and liquid activation enhancer so that the light path of the spectrophotometer passes through the test composition in the cuvette. The sample cuvettes are shaken well just prior to taking a light transmittance reading.
For the compound `CCCCCCCCCCCCCCCCCC(=O)OCCCC` [butyl stearate], the light transmittance value entry is given as “about 100%”.
In the case of `CCCCCCCCCCCCCC(C)C` [isohexadecane], the light transmittance value entry is listed as “about 100%” and the “solubility in 50 centistoke dimethicone” value is recorded as “soluble in 50 centistoke dimethicone across the 2% to 30% w/w concentration range”.
`CCCCCCCCCCCCCC(=O)OC(C)C` [isopropyl myristate]: the light transmittance value entry is given as “about 101%”.
For the compound `CCCCCCCCCCCCCCCC(=O)OC(C)C` [isopropyl palmitate], the light transmittance value entry is “about 101%”.
Take `CCCCCCCCCCC(CO)CCCCCCCC` (centres unmarked) [octyldodecanol]: the “solubility in 50 centistoke dimethicone” value is “soluble in the 50 centistoke dimethicone at some (lower) concentrations”.
Turning to PPG-14 butyl ether, the “solubility in 50 centistoke dimethicone” value was “insoluble in 50 centistoke dimethicone across the 2% to 30% w/w concentration range”.
The same measure, in the same setting: with mineral oil the entry was “soluble in 50 centistoke dimethicone at some (lower) concentrations”.
